Assay results published in article PMC12373846, “Hemoglobin as a pseudoperoxidase and drug target for oxidative stress-related diseases” (Signal Transduction and Targeted Therapy, 2025).

Key:
C57BL/6J mice = assay: PhenoMaster respiration and metabolic analysis; type: in vivo, mouse; parameters: energy expenditure (Fig. S8b) / total food consumption (Fig. S8c) / total drink consumption (Fig. S8d) / oxygen consumption (stats entry 2j): unit not given here
Description: For respiration and metabolic analysis, PhenoMaster (TSE Systems, Germany) was employed. All C57BL/6J mice aged 8–10 weeks underwent initial chamber habituation and gas calibration on day 0. Starting on day 3, the mice were administered KDS12025 dissolved in water at dosages of 0.1, 1, and 10 mg/kg/day (ad libitum drinking water). Respiratory and metabolic measurements, including oxygen consumption, carbon dioxide production, and the respiratory exchange ratio (RER, calculated as VCO2/VO2), as well as food and drink intake and energy expenditure, were conducted from day 4. The recording ends on day 8 with data collection.

fGiD mice = assay: Immunohistochemistry of hippocampal CA1, fGiD mice; type: in vivo, mouse; conditions: fGiD+KDS, 3 mg/kg/day i.p. 16 days, Fig. 4e
aged C57BL/6J mice = assay: Open field locomotor activity, aging mice; type: in vivo, mouse; conditions: 26 month
C57BL/6 mice = assay: Blood H2O2 measurement after LPS; type: in vivo, mouse; conditions: LPS 6 h + KDS12025 3 mg/kg i.p.
Description: C57BL/6 mice were intraperitoneally (i.p.) injected with lipopolysaccharide (LPS) and sacrificed at 2, 6, and 24 h post-injection. Blood was collected from the heart using a syringe pre-treated with 0.5 M EGTA to prevent coagulation. Plasma was separated by centrifuging the collected blood at 1,500 × g for 10 min at 4 °C. H2O2 levels in the plasma were quantified using the Amplex Red assay according to the manufacturer’s instructions. The H2O2 levels peaked at 6 h post-LPS injection. Subsequently, KDS12025 (3 mg/kg/day) was intraperitoneally administered concurrently with LPS at the 6 h time point, and plasma H2O2 levels were measured to assess the effect of the compound.

97 kinases = assay: KINOMEscan scanEDGE selectivity score; type: binding, human; conditions: 10000 nM
Description: The possibility of KDS12025 on kinase off-target, the KINOMEscan panel of scanEDGE assay was conducted in DiscoverX (CA, USA) using a site-directed competition binding with the test compounds. The assay results are given in Supplementary Table 4 and experimental information is available on the DiscoverX web page (www.discoverx.com). Moreover, the Delta SafetyScreen87 panel assay was conducted in Eurofins Discovery (Cerep, France). The assay results are given in Supplementary Table 5 and experimental information is available on the DiscoverX web page (https://www.eurofinsdiscoveryservices.com).

CNc1ccc(NCCc2ccccc2OC)cc1.Cl [KDS12025, N^1-(2-methoxyphenethyl)-N^4-methylbenzene-1,4-diamine hydrochloride salt]
carbon dioxide production (stats entry 2k) (C57BL/6J mice; 0.1mpk, dark): 3345 | energy expenditure (Fig. S8b) (C57BL/6J mice; 0.1mpk, dark): 22.37±1.215 | oxygen consumption (stats entry 2j) (C57BL/6J mice; 0.1mpk, dark): 4228 | respiratory exchange ratio (stats entry 2l) (C57BL/6J mice; 0.1mpk, dark): 0.849 | total drink consumption (Fig. S8d) (C57BL/6J mice; 0.1mpk, dark): 0.1272±0.009 | total food consumption (Fig. S8c) (C57BL/6J mice; 0.1mpk, dark): 0.1543±0.018 | carbon dioxide production (stats entry 2k) (C57BL/6J mice; 0.1mpk, full day): 3292 | energy expenditure (Fig. S8b) (C57BL/6J mice; 0.1mpk, full day): 22.21±1.751 | oxygen consumption (stats entry 2j) (C57BL/6J mice; 0.1mpk, full day): 4161 | respiratory exchange ratio (stats entry 2l) (C57BL/6J mice; 0.1mpk, full day): 0.857 | total drink consumption (Fig. S8d) (C57BL/6J mice; 0.1mpk, full day): 0.108±0.005 | total food consumption (Fig. S8c) (C57BL/6J mice; 0.1mpk, full day): 0.126±0.0123 | carbon dioxide production (stats entry 2k) (C57BL/6J mice; 0.1mpk, light): 3065 | oxygen consumption (stats entry 2j) (C57BL/6J mice; 0.1mpk, light): 3923 | respiratory exchange ratio (stats entry 2l) (C57BL/6J mice; 0.1mpk, light): 0.833 | carbon dioxide production (stats entry 2k) (C57BL/6J mice; 1mpk, dark): 3167 | energy expenditure (Fig. S8b) (C57BL/6J mice; 1mpk, dark): 21.29±0.7258 | oxygen consumption (stats entry 2j) (C57BL/6J mice; 1mpk, dark): 4063 | respiratory exchange ratio (stats entry 2l) (C57BL/6J mice; 1mpk, dark): 0.891 | total drink consumption (Fig. S8d) (C57BL/6J mice; 1mpk, dark): 0.1220±0.0208 | total food consumption (Fig. S8c) (C57BL/6J mice; 1mpk, dark): 0.1761±0.0164 | carbon dioxide production (stats entry 2k) (C57BL/6J mice; 1mpk, full day): 3075 | energy expenditure (Fig. S8b) (C57BL/6J mice; 1mpk, full day): 21.26±0.07088 | oxygen consumption (stats entry 2j) (C57BL/6J mice; 1mpk, full day): 3871 | respiratory exchange ratio (stats entry 2l) (C57BL/6J mice; 1mpk, full day): 0.883 | total drink consumption (Fig. S8d) (C57BL/6J mice; 1mpk, full day): 0.0902±0.0248 | total food consumption (Fig. S8c) (C57BL/6J mice; 1mpk, full day): 0.166±0.03508 | carbon dioxide production (stats entry 2k) (C57BL/6J mice; 1mpk, light): 2916 | energy expenditure (Fig. S8b) (C57BL/6J mice; 1mpk, light): 19.95±0.3562 | oxygen consumption (stats entry 2j) (C57BL/6J mice; 1mpk, light): 3584 | respiratory exchange ratio (stats entry 2l) (C57BL/6J mice; 1mpk, light): 0.860 | total drink consumption (Fig. S8d) (C57BL/6J mice; 1mpk, light): 0.0790±0.0149 | total food consumption (Fig. S8c) (C57BL/6J mice; 1mpk, light): 0.1032±0.009 | carbon dioxide production (stats entry 2k) (C57BL/6J mice; 10mpk, dark): 3344 | energy expenditure (Fig. S8b) (C57BL/6J mice; 10mpk, dark): 20.73±0.9735 | oxygen consumption (stats entry 2j) (C57BL/6J mice; 10mpk, dark): 4216 | respiratory exchange ratio (stats entry 2l) (C57BL/6J mice; 10mpk, dark): 0.877 | total drink consumption (Fig. S8d) (C57BL/6J mice; 10mpk, dark): 0.1041±0.0394 | total food consumption (Fig. S8c) (C57BL/6J mice; 10mpk, dark): 0.1572±0.01881 | carbon dioxide production (stats entry 2k) (C57BL/6J mice; 10mpk, full day): 3120 | energy expenditure (Fig. S8b) (C57BL/6J mice; 10mpk, full day): 19.14±0.6082 | oxygen consumption (stats entry 2j) (C57BL/6J mice; 10mpk, full day): 3593 | respiratory exchange ratio (stats entry 2l) (C57BL/6J mice; 10mpk, full day): 0.857 | total drink consumption (Fig. S8d) (C57BL/6J mice; 10mpk, full day): 0.0776±0.01206 | total food consumption (Fig. S8c) (C57BL/6J mice; 10mpk, full day): 0.1288±0.0108 | carbon dioxide production (stats entry 2k) (C57BL/6J mice; 10mpk, light): 2900 | energy expenditure (Fig. S8b) (C57BL/6J mice; 10mpk, light): 18.91±1.057 | oxygen consumption (stats entry 2j) (C57BL/6J mice; 10mpk, light): 3753 | respiratory exchange ratio (stats entry 2l) (C57BL/6J mice; 10mpk, light): 0.831 | total drink consumption (Fig. S8d) (C57BL/6J mice; 10mpk, light): 0.05856±0.0075 | total food consumption (Fig. S8c) (C57BL/6J mice; 10mpk, light): 0.09464±0.0095 | mean GFAP intensity in the GFAP-positive area (fGiD mice): fGcon (49.2±2.7, n=9), fGiD (82.5±3.6, n=9), fGiD+KDS (59.0±2.5, n=9) One-way ANOVA with Tukey's multiple comparisons test, F(2,24) = 33.23, p < 0.001 fGcon vs. fGiD, p < 0.01; fGcon vs. fGiD+KDS, p = 0.07; fGiD vs. fGiD+KDS12025 (0.1mpk), p = 0.01 | distance traveled (Fig. 7d) (aged C57BL/6J mice; 0.1mpk): 3262±203 | locomotor velocity (Fig. 7c) (aged C57BL/6J mice; 0.1mpk): 5.42±0.34 | distance traveled (Fig. 7d) (aged C57BL/6J mice; 1mpk): 3600±561 | locomotor velocity (Fig. 7c) (aged C57BL/6J mice; 1mpk): 6.24±0.6 | plasma H2O2 level (Fig. S20r) (C57BL/6 mice): Control (0.3325±0.02161, n=6), LPS-6hrs (1.295±0.05323, n=6), LPS-6hrs+KDS (0.7847±0.08078, n=6) One-way ANOVA with Tukey's multiple comparisons test, F(2,15) = 70.74, p < 0.001 Control vs. LPS-6hrs, p < 0.001; Control vs. LPS-6hrs+KDS, p < 0.001; LPS-6hrs vs. LPS-6hrs+KDS, p < 0.001 | Number of Hits, S(1) (97 kinases): 0 | Number of Hits, S(10) (97 kinases): 0 | Number of Hits, S(35) (97 kinases): 0
